The text below walks through data of patent EP0234113A1, “2,3-Dihydro-1H-phenalene-2-amino compounds as anti-psychotic drugs” (THE UPJOHN COMPANY, priority 1985, dated 1987).

What is called ED50 is the midpoint of the dose-response relation.

One series has as its system plasma prolactin. The series is described as follows: Plasma prolactin. Type of series: in vivo. The note with it: 3 mg/kg of chlorpromazine, 30 mg/kg clozapine or U-64,273A; Sprague-Dawley rat.
The subject of series [1] is dopamine metabolites HVA, DOPAC, and 3MT. The series is described as follows: Dopamine metabolites in rat brain. Format: in vivo. The conditions noted are these: percentage of control; 3 mg/kg of chlorpromazine, 30 mg/kg clozapine or U-64,273A; Sprague-Dawley rat.
Another series deals with Locomotor activity. The series is described as follows: Antagonism of apomorphine locomotor activity in reserpinized mouse. Type of series: in vivo. The source says:
(§1) Table 3. […] A. Behavioral effects in the rat. B. Behavioral effects in the monkey. C. Doses required to antagonize the indicated behavioral effects of amphetamine. D. Doses required to antagonize the indicated behavioral effects of apomorphine.

In another series the test system is Catalepsy. The series is described as follows: Catalepsy. The conditions noted are these: rat.
Text: as §1

The subject of series [2] is dopamine neurons. The series is described as follows: Reversal of amphetamine depression of dopamine neuron firing rates. Format: in vivo, rats. The note with it: for Emax / ED50: Rattus norvegicus, Neuron, iv; for Emax: read-out: MAXIMUM EFFECT (per cent reversal). The procedure: Table 2. Dopamine neuron firing rates were recorded according to published procedures and drugs were injected intravenously in chloral hydrate anesthetized rats. A. Ability of drugs to reverse the depression in firing rates of dopamine neurons by 1 to 2 mg/kg amphetamine. The maximum effect is the maximum amount of the amphetamine effect that was reversed, even when doses were increased beyond dose causing maximum effect. […] B. Depression of dopamine neurons by full agonist apomorphine and partial agonists TDHL, (-)PPP and U-64,273A. Maximum effect is maximum depression that could be realized even after increasing doses beyong the dose causing maximum effect. For both A and B, the ED50 is the dose causing 50% of the respective antagonistic (A) or agonist (B) effect.

Series [3] has as its system body temperature. The series is described as follows: Hypothermia Test (effect on body temperature). Type of series: in vivo, CF-1 male mice. The conditions noted are these: for ED50: Mus musculus, ip, 0.75 h, read-out: Hypothermia ED50; for active in either the hypothermic or the apomorphine antogonism test: either test: hypothermic or apomorphine antagonism. As to the method:
(§2) The Effect on Body Temperature (Hypothermia) Test and the Antagonism of Apomorphone-Induced Case Climbing (ACC), (Apomorphine Gnawing Test) are described on page 1398 of the publication, Journal of Medicinal Chemistry, Vol. 22, No. 11, pp. 1390-1398, in an article entitled "6-Aryl-4H-s-triazolo[4,3-a][1,4]benzodiazepines....Action" by J. B. Hester, Jr., et al.
For the tests here, the Hypothermia Test procedure was run as follows:
A group of four CF-1 male mice (18-22 g each) was injected intraperitoneally with the test compound prepared in 0.25 percent w/v methylcellulose in water solution. After 45 min, abdominal temperature of each mouse was measured using a thermister probe. A control group of four mice was treated with vehicle only and the temperature of the control group was taken in a similar manner. A compound was considered to have a significant effect on body temperature if the mean temperature in the test compound treated group deviated more than 3.5°C from the mean temperature of the parallel control group. Stimulants tend to elevate temperatures; depressants tend to lower body temperature.

The subject of series [4] is Apomorphone-Induced Case Climbing. The series is described as follows: Apomorphine antagonism (Apomorphine gnawing test; apomorphine-induced cage climbing). Type of series: in vivo, Mouse. The conditions noted are these: Mus musculus, read-out: Apomor. Antag. ED50.
Text: as §2, §1

In another series the test system is Dopamine (3H-spiperone). The series is described as follows: Receptor Binding Assay with 3H-spiperone (Dopamine Binding Assay), rat brain homogenate. The note with it: single concentration of 1 uM, 3H-spiperone, rat brain homogenate; 30 min. The procedure:
The Receptor Binding Assay test for antipsychotic acitvity, was conducted as follows:
A rat brain homogenate was prepared (1) by homogenizing a whole rat brain minus the cerebellum in 10 ml of 0.05M THAM-HC1, pH 7.4, using a Polytron at a setting of 7 for 30 sec. and centrifuging at 15,000xg for 10 min. The supernatant was discarded, the pellet resuspended in 10 ml of buffer using the Polytron for 10 sec., and the centrifugation repeated. The pellet was resuspended and diluted to 100 times the original tissue weight with buffer. Then 100 ml of the homogenate was diluted to 400 ml with buffer.
The test drug was weighed out in a scintillation vial in a 1-5 mg ammount. They were dissolved by adding 0.5 ml of N-N-dimethylformamide of (DMF) and then 0.05 ml of 1M acetic acid, and vortexed to solubilize the drug. Then 10 ml of deionized and filtered water was added to the required volume. All compounds were tested at a single concentration of 1 uM.
Samples were prepared for incubation using an ^3H-spiperone (antipsychotic).
Incubation was conducted at 30°C for 30 min. on a shaking water bath. Every 30 sec., 24 tubes were filled with 1 ml of homogenate and put into the bath (this is done every 3 min. until all tubes are in the bath). Upon completion of the incubation procedure, the samples are filtered and rinsed.
The punched filters are dropped into vials, which are in turn filled with ACS liquid scintillation fluid and capped and counted in a liquid scintillation counter. Counting data is recorded and analyzed.
Results are expressed as percent decrease from control.

Series [5] concerns body temperature. The series is described as follows: Antagonism of drug-induced hypothermia. More on the design: species or system mice. The conditions noted are these: mouse, in vivo.
Series [6] concerns dopamine neurons. The series is described as follows: Depression of dopamine neuron firing rates by the drug alone. Type of series: in vivo, rats. The note with it: Rattus norvegicus, iv; for Emax: read-out: MAXIMUM EFFECT (per cent decrease). As to the method: Table 2. Dopamine neuron firing rates were recorded according to published procedures and drugs were injected intravenously in chloral hydrate anesthetized rats. A. Ability of drugs to reverse the depression in firing rates of dopamine neurons by 1 to 2 mg/kg amphetamine. The maximum effect is the maximum amount of the amphetamine effect that was reversed, even when doses were increased beyond dose causing maximum effect. An effect greater than 100% indicates excitation of the neuron beyond its' control rate whereas an effect less than 100% indicates partial agonist effects. B. Depression of dopamine neurons by full agonist apomorphine and partial agonists TDHL, (-)PPP and U-64,273A. Maximum effect is maximum depression that could be realized even after increasing doses beyong the dose causing maximum effect. For both A and B, the ED50 is the dose causing 50% of the respective antagonistic (A) or agonist (B) effect.

Counter-ions that a name gives are not always drawn.

As to `CN1CCN(C2=Nc3cc(Cl)ccc3Nc3ccccc32)CC1` [Clozapine, clozapine], in the series on plasma prolactin, the “Plasma Prolactin” value was determined as 42%. Besides, in series [1], the 3MT turned out to be 104%, the DOPAC is reported as 110% and the HVA was 118%. Besides, the “Locomotor activity, reserpinized mouse, 3 mg/kg (antag. of apomorphine)” value in the series on Locomotor activity turned out to be 52%. Further, the “Catalepsy, active dose” value in the series with Catalepsy (i.a. = inactive) is given as “i.a”. For the same compound, the Emax in the series on dopamine neurons [2] (A. antagonize amphetamine depressions, intravenously, chloral hydrate anesthetized rats, 1 to 2 mg/kg amphetamine, >100% = excitation beyond control rate) was 105%. The ED50 in the series on dopamine neurons [2] (dose causing 50% of the antagonistic effect, intravenously, anesthetized rats, read-out: ED50) came out at 2 mg/kg.
Regarding `CCCN(CCC)C1Cc2cccc3c(SC)ccc(c23)C1` (stereo not shown) [Example 40, 2,3-Dihydro-N,N-di-n-propyl-6-methylthio-lH-phenalen-2-amine], the ED50 worked out at 25 mg/kg in the series on body temperature [3] and 12.5 mg/kg in series [4].
As to `CCCN(CCC)C1(C)Cc2cccc3cc(O)cc(c23)C1` (stereo not shown) [Example 41, 5-Hydroxy-2-methyl-2,3-dihydro-N,N-di-n-propyl-lH-phenalene-2-amine], the “Dopamine Binding Assay % Decrease from Control” value in the series on Dopamine (3H-spiperone) is -55.18%. The median effective dose (ED50) (in the series with body temperature [3]; in series [4]) was > 50 mg/kg in each case.
For the compound `O=C(CCCN1CCC(O)(c2ccc(Cl)cc2)CC1)c1ccc(F)cc1` [Haloperidol, haloperidol], in the series with Catalepsy (in vivo), the “Catalepsy, active dose” value is on record as 1 mg/kg. In the series with dopamine neurons [2], the ED50 was 0.008 mg/kg and the Emax came to 164%. Further, in the series with dopamine neurons [2] (after reversal of amphetamine depression of DA neuronal firing), the “increase of firing rates to a level greater than controls” value is listed as 64%. Further, the “block of hypothermia induced by 2-(N,N-di-n-propylamino)-2,3-dihydro-lH-phenalen-5-ol” value in the series with body temperature [5] is given as “significantly blocks”.
For the compound `Cc1ccc2c3c(cccc13)CC(N)C2` (stereo not shown) [Example 38, part C, 6-methyl-2,3-dihydro-lH-phenalen-2-amine], the “Dopamine Binding Assay % Decrease from Control” value in the series on Dopamine (3H-spiperone) is -30.62%. Further, the ED50 is > 50 mg/kg in the series on body temperature [3] and 35 mg/kg in [4].
On to `Cc1ccc2c3c(cccc13)CC(N(C)C)C2` (stereo not shown) [Example 39, part C, 2,3-dihydro-N,N,6-trimethyl-lH-phenalen-2-amine], for which the ED50 is 5.3 mg/kg with body temperature [3] and 21 mg/kg in series [4].
For `CCCN(CCC)C1Cc2cccc3c(C)ccc(c23)C1` (stereo not shown) [Example 38, title compound, 2,3-Dihydro-6-methyl-N,N-dipropyl-lH-phenalene-2-amine], the “Dopamine Binding Assay % Decrease from Control” value with Dopamine (3H-spiperone) is given as -82.08%. The figures for the ED50 (with body temperature [3]; in series [4]) were 18 mg/kg and > 50 mg/kg, respectively.
As for `CCN(CC)C(=O)N[C@H]1C[C@@H]2c3cccc4[nH]cc(c34)C[C@H]2N(C)C1` [TDHL, trans-dihydrolisuride], in the series with dopamine neurons [6] (Neuron), the 50% effective dose (ED50) was found to be 0.021 mg/kg and the Emax worked out at 53%. For the same compound, in the series on dopamine neurons [2], the ED50 amounted to 0.132 mg/kg and the Emax was 57%.
As for `CN(C)C1Cc2cccc3cccc(c23)C1` [U-65,556, 2,3-dihydro-N,N-dimethyl-lH-phenalen-2-amine], the “reversal of amphetamine's depression of DA neuronal firing (in words)” value in the series with dopamine neurons [2] (intravenous, anesthetized rats) is “reversed amphetamine's depressions of DA neurons without causing firing rates to increase over control”.
On to `COC(=O)[C@@H]1[C@H]2C[C@H]3c4[nH]c5ccccc5c4CCN3C[C@@H]2CC[C@@H]1O` [yohimbine], for which, in the series with body temperature [5], the “block of hypothermia induced by 2-(N,N-di-n-propylamino)-2,3-dihydro-lH-phenalen-5-ol” value is given as “did not alter” and the “block of hypothermia induced by clonidine” value is on record as “did block”.
`CCCN(CCC)C1Cc2cccc3cc(O)cc(c23)C1` (single isomer, unassigned; (+)) [(33), (+)-2-(N,N-di-n-propylamino)-2,3-dihydro-lH-phenalen-5-ol hydrobromide]: in the series with body temperature [3], the “active in either the hypothermic or the apomorphine antogonism test” value is recorded as “active”.
Still for that read-out and setting: then `CNC1Cc2cccc3c(C(C)=O)ccc(c23)C1` (stereo not shown) [(14), N-methyl-6-acetyl-2,3-dihydro-lH-phenalen-2-amine hydrochloride], with “active”.
Same read-out and setting: then `c1cc2c3c(cccc3c1)CC(N1CCC1)C2` [(54), 1-[2,3-dihydro-IH-phenalen-2-yl]azetidine succinate salt], with “active”.
Same read-out and setting: in the case of `CCCN(CCC)C1Cc2cccc3cc(OC(=O)Cc4ccccc4)cc(c23)C1` (stereo not drawn) [(48), [2-(N,N-di-n-propylamino)-2,3-dihydro-1H-phenalen-5-yl]-α-phenylacetate ester hydrochloride, 0.5 H2O hydrate] it was “active”.
With `CNC1Cc2cccc3c(C)ccc(c23)C1` (stereo not shown) [Example 39, part B, 2,3-dihydro-N,6-dimethyl-1H-phenalen-2-amine], in the series on Dopamine (3H-spiperone), the “Dopamine Binding Assay % Decrease from Control” value is given as -55.37%. The values for the ED50 (in the series on body temperature [3]; in series [4]) were 13 mg/kg and 35 mg/kg, respectively.
Take `CCCN(CCC)C1Cc2cccc3cc(OC(=O)OCC)cc(c23)C1` (stereo not shown) [(47), [2-(N,N-di-n-propylamino)-2,3-dihydro-lH-phenalen-5-yl]-ethyl carbonate (ester)]: in the series on body temperature [3], the “active in either the hypothermic or the apomorphine antogonism test” value is on record as “active”.
The same measure, in the same setting: in the case of `CN(C)C1(N2CCC2)Cc2cccc3cccc(c23)C1` [(11), 1-[2-(N,N-dimethylamino)-2,3-dihydro-1H-phenalen-2-yl]azetidine] it was “active”.
For the compound `CCCN1CCC[C@@H](c2cccc(O)c2)C1` [(-)PPP], in the series on dopamine neurons [6] (Neuron, dose causing 50% of the agonist effect, intravenously, anesthetized rats, read-out: ED50), the 50% effective dose (ED50) was found to be 0.137 mg/kg. Also, the Emax in the series with dopamine neurons [6] (B. depress DA neuron firing rates, intravenously, chloral hydrate anesthetized rats) turned out to be 68%.
Consider `CN(C)C1Cc2cccc3cc(O)cc(c23)C1` (stereo not shown) [(23), 2-(N,N-dimethylamino)-2,3-dihydro-lH-phenalen-5-ol], for which the “active in either the hypothermic or the apomorphine antogonism test” value in the series with body temperature [3] is “active”.
Consider “N-methyl-6-(2-methyl-l,3-dioxan-2-yl)-2,3-dihydro-lH-phena- len-2-amine maleate salt [(6)]”, for which the “active in either the hypothermic or the apomorphine antogonism test” value with body temperature [3] is “active”.
With `CCNC1Cc2cccc3cccc(c23)C1` [(57), N-ethyl-2,3-dihydro-lH-phenalen-2-amine hydrochloride], the “active in either the hypothermic or the apomorphine antogonism test” value in the series on body temperature [3] is on record as “active”.
On the same count and under the same terms, in the case of “6-chloro-N,N-dimethyl-2,3-dihydro-lH-phenalen-2-amine hydrochloride [(52)]” it was “active”.
On the same count and under the same terms, then `CN(C)C1Cc2cccc3c(C(=O)c4ccccc4)ccc(c23)C1` (stereo not shown) [(39), [2-(N,N-dimethylamina-2,3-dihydro-1H-phenalen-6-yl]phenone maleate salt, hydrochloride], with “active”.
